In patent US20060100431A1, “Biologically active compounds” (Amura Therapeutics Limited, priority 2002, published 2006) one finds Ki data, which are given here for 17 molecules.

SMILES strings stand for the structures. Where two headings read alike, the source gives them in different places. Where only a bound is given, the exact number is not on record here.

Common to all, as to assay type: biochemical
The target of experiment [1] is Wild-type cruzipain (Trypanosoma cruzi, UniProt P25779). Briefly: Trypanosoma cruzi cruzipain peptidase activity assay (Ki). The note with it: read-out: Ki, inhibitors of cruzain and cruzipains. Put shortly:
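Native cruzipain from T. cruzi Dm28 epimastigotes, 2.5 nM, in 100 mM sodium phosphate pH 6.75 with 1 mM EDTA and 10 mM L-cysteine, 25 °C, DMSO <1%. Rates taken from continuous fluorogenic substrate read; Ki by regression assuming reversible pure-competitive inhibition.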

Experiment [2] concerns the target T1, CPB2.8ΔCTE (Leishmania mexicana, UniProt P36400).
T1 construct: Wild-type recombinant CPB without the C-terminal extention (i.e. CPB2.8ΔCTE); Dr. Jeremy Mottram (Wellcome Centre for Molecular Parasitology, University of Glasgow)
Briefly: Leishmania mexicana cysteine protease B (CPB) peptidase activity assay (Ki). The note with it: Ki, inhibitors of Leismania mexicana CPB protease. In outline:
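Apparent Ki was derived by regression of activity against inhibitor concentration, assuming pure-competitive reversible binding. Reaction: 0.25 nM CPB lacking the C-terminal extension, pH 5.5 acetate buffer (1 mM EDTA, 200 mM NaCl, 10 mM DTT), 25 °C, followed by continuous substrate fluorescence.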

Experiment [3] addresses T2, human cathepsin B (Homo sapiens, UniProt P07858).
T2 construct: purchased CN Biosciences
Description: Cathepsin B peptidase activity assay (Ki). As to the method:
Unless otherwise stated, all general chemicals and biochemicals were purchased from either the Sigma Chemical Company, Poole, Dorset, U.K or from Fisher Scientific UK, Loughborough, Leicestershire, U.K. Absorbance assays were carried out in flat-bottomed 96-well plates (Spectra; Greiner Bio-One Ltd., Stonehouse, Gloucestershire, U.K.) using a SpectraMax PLUS384 plate reader (Molecular Devices, Crawley, U.K.). […] Fluorescence assays were monitored using a SpectraMax Gemini fluorescence plate reader (Molecular Devices). For substrates employing either a 7-amino-4-methylcoumarin (AMC) or a 7-amino-4-trifluoromethylcoumarin (AFC) fluorophore, assays were monitored at an excitation wavelength of 365 nm and an emission wavelength of 450 nm and the fluorescence plate reader calibrated with AMC. For substrates employing a 3-amino-benzoyl (Abz) fluorophore, assays were monitored at an excitation wavelength of 310 nm and an emission wavelength of 445 nm; the fluorescence plate reader calibrated with 3-amino-benzamide (Fluka). Unless otherwise indicated, all the peptidase substrates were purchased from Bachem UK, St Helens, Merseyside, UK. […] Hydroxyethylpiperazine ethanesulfonate (HEPES), tris-hydroxylmethyl aminomethane (tris) base, bis-tris-propane and all the biological detergents (e.g. CHAPS, zwittergents, etc.) were purchased from CN Biosciences UK, Beeston, Nottinghamshire, U.K. Glycerol was purchased from Amersham Pharmacia Biotech, Little Chalfont, Buckinghamshire, U.K. Stock solutions of substrate or inhibitor were made up to 10 mM in 100% dimethylsulfoxide (DMSO) (Rathburns, Glasgow, U.K.) and diluted as appropriately required. In all cases the DMSO concentration in the assays was maintained at less than 1% (vol./vol.).
Enzyme was added as required to initiate the reaction and the activity, as judged by the change in fluorescence upon conversion of substrate to product, was monitored over time. All assays were carried out at 25±1° C.
Bovine cathepsin S, human cathepsin L, human cathepsin H and human cathepsin B were obtained from CN Biosciences. Recombinant human cathepsin S, human cathepsin K and human cathepsin X were obtained from Dr. Boris Turk (Josef Stefan Institute, Ljubljana, Slovenia). Unless otherwise stated, all peptidase activity assays were carried out in 10 mM bis-tris-propane (BTP), pH 6.5 containing 1 mM EDTA, 5 mM 2-mercaptoethanol and 1 mM CaCl2.
The apparent inhibition constant (Ki) for each compound was determined on the basis that inhibition was reversible and occurred by a pure-competitive mechanism. […] [formula]
[formula] Ki^app=Ki(1+[So]/KM^app) (4)
Curves were fitted by non-linear regression analysis (Prism) using a fixed value for the enzyme concentration.

[4] abbreviates: read-out: Ki, inhibitors of cathepsin B.

Sequence of Wild-type cruzipain (P25779 whole entry): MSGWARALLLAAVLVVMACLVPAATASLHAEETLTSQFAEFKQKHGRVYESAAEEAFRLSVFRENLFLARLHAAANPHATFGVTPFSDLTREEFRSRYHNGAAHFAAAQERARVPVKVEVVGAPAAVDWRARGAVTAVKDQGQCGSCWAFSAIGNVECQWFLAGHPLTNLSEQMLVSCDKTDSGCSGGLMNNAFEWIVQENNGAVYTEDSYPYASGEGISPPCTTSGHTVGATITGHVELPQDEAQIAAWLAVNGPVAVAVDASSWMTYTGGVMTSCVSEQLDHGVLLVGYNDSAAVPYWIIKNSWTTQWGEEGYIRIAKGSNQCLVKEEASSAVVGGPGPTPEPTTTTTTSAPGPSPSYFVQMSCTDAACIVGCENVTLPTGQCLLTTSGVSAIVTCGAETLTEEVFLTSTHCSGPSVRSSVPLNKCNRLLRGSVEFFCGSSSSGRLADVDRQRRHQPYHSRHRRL
T1 sequence (P36400 126-343, stated change not applied): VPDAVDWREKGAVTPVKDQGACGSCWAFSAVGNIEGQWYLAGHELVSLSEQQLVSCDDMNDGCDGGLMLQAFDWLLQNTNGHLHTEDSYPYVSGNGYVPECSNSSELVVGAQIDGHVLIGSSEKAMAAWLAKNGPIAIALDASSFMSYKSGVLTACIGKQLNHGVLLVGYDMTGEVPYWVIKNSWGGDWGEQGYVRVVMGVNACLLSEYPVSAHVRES

For orientation: Ki means the dissociation constant of the complex between target and ligand, obtained from inhibition or displacement. As for `CC(C)C[C@H](NC(=O)c1ccc(N(C)C)cc1)C(=O)N1CC[C@@H]2[C@H]1C(=O)CN2C(=O)C1CCCCCC1` [Example 135, (3aR,6aS)-N-[(1S)-1-(4-Cycloheptanecarbonyl-6-oxo-hexahydro-pyrrolo[3,2-b]pyrrole-1-carbonyl)-3-methyl-butyl]-4-dimethylamino-benzamide], the Ki in experiment [1], in experiment [2] and in experiment [3] was below 5 µM in each case.
As for `CS(=O)(=O)c1cccc(C(=O)N2CC(=O)[C@@H]3[C@H]2CCN3C(=O)[C@H](Cc2ccc(O)cc2)NC(=O)c2cccc(Br)c2)c1` [Example 304, (3aR,6aS)-3-Bromo-N-{(1S)-1-(4-hydroxy-benzyl)-2-[4-(3-methanesulfonyl-benzoyl)-6-oxo-hexahydro-pyrrolo[3,2-b]pyrrole-1-yl]-2-oxo-ethyl}-benzamide], the Ki in experiment [1] and in experiment [3] (setting [4]) was below 5 µM in each case.
`CC(C)C[C@H](NC(=O)c1ccc([N+](=O)[O-])cc1)C(=O)N1CC[C@@H]2[C@H]1C(=O)CN2C(=O)c1cccc(S(C)(=O)=O)c1` [Example 58, (3aR,6aS)-N-{(1S)-1-[4-(3-Methanesulfonyl-benzoyl)-6-oxo-hexahydro-pyrrolo[3,2-b]pyrrole-1-carbonyl]-3-methyl-butyl}-4-nitro-benzamide]: the Ki in experiment [1] and in experiment [3] (setting [4]) was below 5 µM each time.
As for `CC(C)C[C@H](NC(=O)c1ccc(N(C)C)cc1)C(=O)N1CC[C@@H]2[C@H]1C(=O)CN2C(=O)c1ccc2nonc2c1` [Example 102, (3aR,6aS)-N-{(1S)-1-[4-(Benzo[1,2,5]oxadiazole-5-carbonyl)-6-oxo-hexahydro-pyrrolo[3,2-b]pyrrole-1-carbonyl]-3-methyl-butyl}-4-dimethylamino-benzamide], the Ki in experiment [1], in experiment [2] and in experiment [3] (setting [4]) was below 5 µM in each case.
`CC(C)C[C@H](NC(=O)c1ccc(N(C)C)cc1)C(=O)N1CC[C@@H]2[C@H]1C(=O)CN2C(=O)c1ccc2cc[nH]c2c1` [Example 99, (3aR,6aS)-4-Dimethylamino-N-{(1S)-1-[4-(1H-indole-6-carbonyl)-6-oxo-hexahydro-pyrrolo[3,2-b]pyrrole-1-carbonyl]-3-methyl-butyl}-benzamide]: the Ki in experiment [1], in experiment [2] and in experiment [3] (setting [4]) was below 5 µM each time.
With `O=C(N[C@@H](Cc1ccc(O)cc1)C(=O)N1CC[C@@H]2[C@H]1C(=O)CN2C(=O)C12CC3CC(CC(C3)C1)C2)c1cccc(Br)c1` [Example 307, (3aR,6aS)-N-[(1S)-2-[4-(Adamantane-1-carbonyl)-6-oxo-hexa hydro-pyrrolo[3,2-b]pyrrole-1-yl)-1-(4-hydroxy-benzyl)-2-oxo-ethyl]-3-bromo-benzamide], the Ki in experiment [1] and in experiment [3] (setting [4]) was below 5 µM each time.
Regarding `CC(C)C[C@H](NC(=O)c1ccc(C(C)(C)C)cc1)C(=O)N1CC[C@@H]2[C@H]1C(=O)CN2C(=O)c1ccc2ccccc2c1` [Example 34, (3aR,6aS)-4-tert-Butyl-N-{(1S)-3-methyl-1-[4-(naphthalene-2-carbonyl)-6-oxo-hexahydro-pyrrolo[3,2-b]pyrrole-1-carbonyl]-butyl}-benzamide], the Ki in experiment [1], in experiment [2] and in experiment [3] (setting [4]) was below 5 µM in each case.
For the molecule `Cc1cccc(C(=O)N2CC(=O)[C@@H]3[C@H]2CCN3C(=O)[C@H](Cc2ccc(O)cc2)NC(=O)c2cccc(Br)c2)c1` [Example 327, (3aR,6aS)-3-Bromo-N-{(1S)-1-(4-hydroxy-benzyl)-2-[4-(3-methyl-benzoyl)-6-oxo-hexahydro-pyrrolo[3,2-b]pyrrol-1-yl]-2-oxo-ethyl}-benzamide], the Ki in experiment [1] and in experiment [3] (setting [4]) was below 5 µM in each case.
In the case of `Cc1cccc(C(=O)N2CC(=O)[C@@H]3[C@H]2CCN3C(=O)[C@H](CC(C)C)NC(=O)c2ccc(N(C)C)cc2)c1` [Example 54, (3aR,6aS)-4-Dimethylamino-N-{(1S)-3-methyl-1-[4-(3-methyl-benzoyl)-6-oxo-hexahydro-pyrrolo[3,2-b]pyrrole-1-carbonyl]-butyl}-benzamide], the Ki in experiment [1] and in experiment [3] (setting [4]) was below 5 µM each time.
On to `O=C(N[C@@H](Cc1ccc(O)cc1)C(=O)N1CC[C@@H]2[C@H]1C(=O)CN2C(=O)C1CCCCC1)c1cccc(Br)c1` [Example 325, (3aR,6aS)-3-Bromo-N-[(1S)-2-(4-cyclohexanecarbonyl-6-oxo-hexahydro-pyrrolo[3,2-b]pyrrole-1-yl)-1-(4-hydroxy-benzyl)-2-oxo-ethyl]-benzamide], for which the Ki in experiment [1] and in experiment [3] (setting [4]) was below 5 µM each time.
For the molecule `O=C(N[C@@H](Cc1ccc(O)cc1)C(=O)N1CC[C@@H]2[C@H]1C(=O)CN2C(=O)c1cccc([N+](=O)[O-])c1)c1cccc(Br)c1` [Example 305, (3aR,6aS)-3-Bromo-N-{(1S)-1-(4-hydroxy-benzyl)-2-[4-(3-nitro-benzoyl)-6-oxo-hexahydro-pyrrolo[3,2-b]pyrrole-1-yl]-2-oxo-ethyl}-benzamide], the Ki in experiment [1] and in experiment [3] (setting [4]) was below 5 µM in each case.
In the case of `CC(C)C[C@H](NC(=O)c1ccc(N(C)C)cc1)C(=O)N1CC[C@@H]2[C@H]1C(=O)CN2C(=O)c1ccc(F)cc1` [Example 57, (3aR,6aS)-4-Dimethylamino-N-{(1S)-1-[4-(4-fluoro-benzoyl)-6-oxo-hexahydro-pyrrolo[3,2-b]pyrrole-1-carbonyl]-3-methyl-butyl}-benzamide], the Ki in experiment [2] and in experiment [3] (setting [4]) was below 5 µM throughout.
With `O=C(N[C@@H](Cc1ccc(O)cc1)C(=O)N1CC[C@@H]2[C@H]1C(=O)CN2C(=O)C12CC3CC(CC1C3)C2)c1cccc(Br)c1` [Example 308, (3aR,6aS)-3-Bromo-N-[(1S)-2-[4-(hexahydro-2,5-methano-pentalene-3a-carbonyl)-6-oxo-hexahydro-pyrrolo[3,2-b]pyrrole-1-yl]-1-(4-hydroxy-benzyl)-2-oxo-ethyl]-benzamide], the inhibition constant (Ki) in experiment [1] and in experiment [3] (setting [4]) was below 5 µM throughout.
For `O=C(N[C@@H](Cc1ccc(O)cc1)C(=O)N1CC[C@@H]2[C@H]1C(=O)CN2C(=O)c1ccccc1)c1nccc2ccccc12` [Example 299, (3aR,6aS)-Isoquinoline-1-carboxylic acid [(1S)-2-(4-benzoyl-6-oxo-hexahydro-pyrrolo[3,2-b]pyrrol-1-yl)-1-(4-hydroxy-benzyl)-2-oxo-ethyl]-amide], the Ki in experiment [1] and in experiment [3] (setting [4]) was below 5 µM each time.
`O=C(N[C@@H](Cc1ccc(O)cc1)C(=O)N1CC[C@@H]2[C@H]1C(=O)CN2C(=O)c1ccccc1)c1cc2ccccc2s1` [Example 300, (3aR,6aS)-Benzo[b]thiophene-2-carboxylic acid [(1S)-2-(4-benzoyl-6-oxo-hexahydro-pyrrolo[3,2-b]pyrrole-1-yl)-1-(4-hydroxy-benzyl)-2-oxo-ethyl]-amide]: the Ki in experiment [1] and in experiment [3] (setting [4]) was below 5 µM each time.
As for `O=C(N[C@@H](Cc1ccc(O)cc1)C(=O)N1CC[C@@H]2[C@H]1C(=O)CN2C(=O)c1cccc2ccccc12)c1cccc2ccccc12` [Example 301, (3aR,6aS)-Naphthalene-1-carboxylic acid {(1S)-1-(4-hydroxy-benzyl)-2-[4-(naphthalene-1-carbonyl)-6-oxo-hexahydro-pyrrolo[3,2-b]pyrrol-1-yl]-2-oxo-ethyl}-amide], the Ki in experiment [1] and in experiment [3] (setting [4]) was below 5 µM throughout.
Turning to `O=C(N[C@@H](Cc1ccc(O)cc1)C(=O)N1CC[C@@H]2[C@H]1C(=O)CN2C(=O)c1ccc(O)cc1)c1cccc(Br)c1` [Example 309, (3aR,6aS)-3-Bromo-N-[(1S)-2-[4-(4-hydroxy-benzoyl)-6-oxo-hexa hydro-pyrrolo[3,2-b]pyrrole-1-yl]-1-(4-hydroxy-benzyl)-2-oxo-ethyl]-benzamide], the Ki in experiment [1] and in experiment [3] (setting [4]) was below 5 µM each time.
